Experimental findings from ChEMBL document CHEMBL3507680, “University of Dundee, Gates Library screen for HepG2 cell viability” are described below.

The data set in a line: Human HepG2 cell viability assay in 384 well format. The note with it: HepG2 cells, read-out: Inhibition. Type of data set: toxicity, cell-based. Set-up: dose 125 nL, time 70.5 hour; cytotoxicity at 70.5 h: concentration not given beside the values.
Regarding `O=c1[nH]c(C2CCOC2)nc2ccc(Br)cc12` (stereo not given), the cytotoxicity at 70.5 h was -2.39%. Consider `Cn1ccc(C(=O)NCc2ccc(N3CCCCCC3)nc2)cc1=O`, for which the cytotoxicity at 70.5 h is -12.5%. Regarding `COCc1cnc2n1CCN(C(=O)C1=CCCCC1)C2C` (stereo not given), the cytotoxicity at 70.5 h came to 17.6%. Take `CC(C)c1n[nH]c(C2CN(CCCS(C)(=O)=O)CCO2)n1` (stereo not given): the cytotoxicity at 70.5 h was -4.2%. Regarding `CCCC(C#N)NC(=O)CCCOc1cccc(C(C)=O)c1` (stereo not given), the cytotoxicity at 70.5 h stood at 18%. Consider `O=C(O)c1cn(CC2CCCN(c3ccc4ccccc4n3)C2)nn1` (stereo not given), for which the cytotoxicity at 70.5 h was -10.4%. Consider `CN(C)C(=O)c1nc2c(s1)CCCN2Cc1ccccc1`, for which the cytotoxicity at 70.5 h was -7.89%. For `C[C@@H]1CN(C(=O)c2ccc(C#N)nc2)CC[C@@]1(O)C1CCOCC1`, the cytotoxicity at 70.5 h is -9.58%. With `O=C([C@H]1CN(Cc2nccs2)C[C@H]2OCC[C@@H]12)N1CCCC1` the figure was 10.2%; with `Cc1cccc(NC(=O)c2nn(C3CCS(=O)(=O)C3)c3c2CCCC3)n1` (stereo not given), -27.2%.

`CSCC(=O)N1CCc2nc(C)nc(NCc3ccccc3)c2CC1`: the cytotoxicity at 70.5 h was -5.43%. As to `CN1[C@H](CN2CCCC2)C[C@@H]2CN(C(=O)c3cccn3C)CC[C@@H]21`, the cytotoxicity at 70.5 h worked out at 1.34%.

Turning to `CN(C(=O)Cn1nc(-c2ccc(Cl)cc2)ccc1=O)C1CCS(=O)(=O)C1` (stereo not given), the cytotoxicity at 70.5 h is -21.1%. For `CCOCCNCc1cc(O)c2cc(C)ccc2n1`, the cytotoxicity at 70.5 h was -5.02%. `O=C(NCCNc1cnccn1)N1CCCCCC1`: the cytotoxicity at 70.5 h amounted to 2.18%. Take `CCc1csc(NC(=O)Nc2c(C)n[nH]c2C)n1`: the cytotoxicity at 70.5 h is -4.31%. Regarding `COc1cc(C(=O)N2CCC(c3n[nH]c(C)n3)CC2)cc(OC)c1C`, the cytotoxicity at 70.5 h is -3.07%. With `Nc1cnn(CC(=O)N2CCCCC2)c1` the figure was 3.95%; with `CC(C)NC(=O)CCN1CCCC1c1cccc2c1OCCO2` (stereo not given), -8.96%. With `CCc1ncncc1C(=O)N1CCN(Cc2ccsc2)CC1`, the cytotoxicity at 70.5 h worked out at 7.59%.

On to `CN(CCc1ccccn1)[C@@H]1CCN(c2cccc(C#N)n2)C[C@H]1O`, for which the cytotoxicity at 70.5 h was 0.836%. In the case of `N#Cc1cccc(C(=O)N2CC[C@H]3[C@H]2CCN3CC2CC2)c1`, the cytotoxicity at 70.5 h is 19.2%.

For `COc1cc(N2CCC3(CC2)CC(N2CCOCC2)CO3)ncn1` (stereo not given), the cytotoxicity at 70.5 h is -2.9%. Regarding `NC(=O)C1(Cc2ccc(-c3ccccc3)cc2)CCNC1` (stereo not given), the cytotoxicity at 70.5 h was determined as 36.2%.

Take `Cc1ccc(C(=O)N2CCCCC2c2[nH]ncc2S(C)(=O)=O)cn1` (stereo not given): the cytotoxicity at 70.5 h is -2.26%. For the compound `CN(C)C(=O)C1CN(Cc2c[nH]cn2)CCN(C2CCOCC2)C1` (stereo not given), the cytotoxicity at 70.5 h was -0.471%.

As to `Cc1cn2nc(N3CCCC3Cn3nc(C)cc3C)sc2n1` (stereo not given), the cytotoxicity at 70.5 h is -7.66%.

As to `Cc1nn(C)c2nc(-c3ccccn3)nc(NCCCOC(C)C)c12`, the cytotoxicity at 70.5 h is -0.266%. With `c1ccc(NC[C@@H]2CCC[C@@H]3CN(c4ncccn4)C[C@@H]32)nc1` the figure was -13.7%; with `COCc1nn(C(C)C)c2c1CCN(Cc1ccc(C)s1)C2`, -8.69%; with `CCSc1ncc(-c2cc(C3CCC3)nc(N)c2C#N)cn1`, 9.11%. With `O=C(c1ccoc1)N1CCc2ncnc(NCc3ccccn3)c2CC1` the figure was 25.5%; with `CCc1nc(Cn2nc(COC)oc2=O)cs1`, -9.78%; with `O=C(NC[C@]1(O)CN(Cc2ccccc2F)C[C@H]1O)c1ccccn1`, -62.9%.

`c1cnc(-c2nc(CN3CCCN(Cc4cccs4)CC3)cs2)nc1`: the cytotoxicity at 70.5 h is -3.19%. As for `c1csc(-c2noc(CCCN3CCCC3Cn3cncn3)n2)c1` (stereo not given), the cytotoxicity at 70.5 h was found to be 2.46%.

For `Cc1cccc(CN2CCc3onc(Cn4cccc4)c3C2)n1`, the cytotoxicity at 70.5 h was -2.56%. With `Cc1cc(C)nc(N2CCC(CNC(=O)c3ccccn3)CC2)n1` the figure was 2.6%; with `CCn1ccc(NC(=O)CCn2nc(C)c3ccccc32)n1`, -10.3%. `Cc1c(NCC(C)(C)C)cccc1C(=O)N(C)Cc1ncnn1C`: the cytotoxicity at 70.5 h amounted to 21%.

Take `Cc1csc([C@@H]2C[C@H]3CN(c4ncc(F)cn4)C[C@H]3O2)n1`: the cytotoxicity at 70.5 h is -2.24%. Turning to `COCC(=O)N1CC[C@@H](N2CCOCC2)[C@@H]1Cc1ccccc1`, the cytotoxicity at 70.5 h is 4.62%. As to `O=C([C@@H]1C[C@@H]2CCN(Cc3ccoc3)C[C@H]2O1)N1CCCC1`, the cytotoxicity at 70.5 h is -2.05%. Consider `Cc1nc(N2CCN(C)CC2)ncc1C(=O)N1C[C@@H](C)[C@@](C)(O)C1`, for which the cytotoxicity at 70.5 h was found to be 4.1%. With `CS(=O)(=O)c1ccc(NCc2ccccc2)cn1`, the cytotoxicity at 70.5 h is -2.92%. On to `c1cncc(CN2CCOC(c3ncn4c(C5CC5)cccc34)C2)c1` (stereo not given), for which the cytotoxicity at 70.5 h is -3.57%. Regarding `COCc1ncc(CN2CCC3(CCC(=O)N(CC(C)O)C3)CC2)cn1` (stereo not given), the cytotoxicity at 70.5 h was -9.93%.

Take `CN(C)CCNC(=O)c1ccc(OC2CCN(S(C)(=O)=O)CC2)c(Cl)c1`: the cytotoxicity at 70.5 h is -9.41%. Take `COC(=O)CCC(=O)N1CCc2nc(C(=O)N(C)C)sc2CC1`: the cytotoxicity at 70.5 h was -10.1%. On to `Cc1cc(C)cc(C(=O)NCCCC2(C3OCCO3)CCOCC2)c1`, for which the cytotoxicity at 70.5 h worked out at 1.06%.

For the compound `OC(CNCCn1cccn1)c1ccc(Br)cc1` (stereo not given), the cytotoxicity at 70.5 h was found to be 15.8%. On to `Cc1cnn(CC2CCCN2C(=O)c2cccc3[nH]ncc23)c1` (stereo not given), for which the cytotoxicity at 70.5 h turned out to be 1.32%. With `CS(=O)(=O)N1CC(c2n[nH]c3ncccc23)C1` the figure was -1.49%; with `COCCN(CCOC)C(=O)c1sc(C)nc1C`, -6.51%. `Cc1nn(C)c2c(NCc3ccncc3)nc(C3CC3)nc12`: the cytotoxicity at 70.5 h is 3.06%. On to `CCN(CC)c1ccc(CNC(=O)c2cnc(C)cn2)cn1`, for which the cytotoxicity at 70.5 h was -4.04%.

For the compound `Cc1cc(C)n(CC(=O)N2CCCCC2CCN(C)C)c(=O)n1` (stereo not given), the cytotoxicity at 70.5 h is -7.91%. `CNc1nc2c(s1)C(c1ccccc1F)CC(=O)N2` (stereo not given): the cytotoxicity at 70.5 h was found to be 9.16%.

`CC(C)c1cc(C(=O)NCCN2CCCS2(=O)=O)n[nH]1`: the cytotoxicity at 70.5 h was -19.6%. With `CN1CCN(C(=O)Cc2cccc(F)c2)Cc2cccnc21` the figure was -5.94%; with `CC(NC(=O)c1cccnc1N(C)C)c1ccccc1Cl` (stereo not given), -9.9%.

`CCNC(=O)N1C[C@@H]2OCC(=O)N(Cc3cccnc3)[C@@H]2C1`: the cytotoxicity at 70.5 h is -1.41%. As to `Cc1n[nH]cc1CNCC(c1cccc(F)c1)N(C)C` (stereo not given), the cytotoxicity at 70.5 h was -1.43%. For the compound `Cc1cc(CN2CC[C@H]3C[C@H](C(=O)N4CCC(C)CC4)O[C@H]3C2)no1`, the cytotoxicity at 70.5 h is -9.04%. For `O=C(c1ccc(-n2cccn2)nc1)N1CCCC(n2cccn2)C1` (stereo not given), the cytotoxicity at 70.5 h was -7.62%. Consider `O=C(NC1CCN(c2nccs2)CC1)c1cccs1`, for which the cytotoxicity at 70.5 h was 10.5%.

With `CC(O)CN1CCN(C(=O)c2ccc(N3CCCC3)nn2)CC1` (stereo not given), the cytotoxicity at 70.5 h came out at 1.72%.

Regarding `CC(=O)N1CCOC2(CCCN(C(=O)c3ccc(Cl)cc3)C2)C1` (stereo not given), the cytotoxicity at 70.5 h is -15.6%. As for `Cc1oc(-c2nc(C#N)c(NC(C)(C)C)o2)cc1S(=O)(=O)N1CCCC1`, the cytotoxicity at 70.5 h was -8.41%. In the case of `COC(=O)c1ccc(C2CC(=O)Oc3cc(C)[nH]c(=O)c32)cc1` (stereo not given), the cytotoxicity at 70.5 h came to 4.58%.
